Reference: paper PMC10974743, “Design, Synthesis, and Biological Evaluation of Novel Phenoxy Acetic Acid Derivatives as Selective COX-2 Inhibitors Coupled with Comprehensive Bio-Pharmacological Inquiry, Histopathological Profiling, and Toxicological Scrutiny” (Molecules, 2024)
Entries after “also recorded” stand apart in the source; their conditions may differ. Marks after values point to notes of the source that are not given here.

Legend:
gastric mucosa = test: Evaluation of ulcerogenic effects (macroscopic scores and gastric histopathology); conditions: for Gastric mucosa histopathological finding: H&E staining; for Ulcer Number Score / Ulcer Severity Score: mean ± SD; for Ulcer Number Score: n = 6; for Ulcer Severity Score: n = 6, scale 0 to 5
Experimental: The assessment of ulcerogenic effects was conducted following established procedures [42, 57]
Following the experimental period, the animals were euthanized using pentobarbital sodium (100 mg/kg), and blood was collected via jugular vein exsanguination for later evaluation of liver and kidney function, and subsequently sacrificed by cervical dislocation. […] Following this, the animals' stomachs were removed, inflated, and opened along the greater curvature to evaluate ulcerogenic effects.
B: Ulcer lesion severity scoring system
2.5 More than 10 small ulcers
3 1 marked ulcer plus 0 to 4 small ulcers
3.5 1 marked ulcer plus 5 or more small ulcers
4 2 marked ulcers plus 0 to 4 small ulcers
4.5 2 marked ulcers plus 5 or more small ulcers
5 3 or more marked ulcers
The statistical analysis of the data was conducted using GraphPad Prism 9.5.1 Demo
(GraphPad Software, San Diego, CA). One -way analysis of variance (ANOVA) was utilized to
evaluate differences among the various groups, except for paw edema volume, which un derwent
analysis using two -way ANOVA. Post -hoc analysis was performed using Tukey's multiple
significance set at P < 0.05

[1] = test system: carrageenan-induced paw edema; test: Carrageenan paw edema test (paw thickness, paw weight); conditions: for Paw thickness difference: oral; for Paw thickness difference / Paw Weight Increase: mean ± SD, n = 6; for Paw Weight Increase: right vs left paw, after 5 h
Experimental: The carrageenan paw edema test was conducted following established procedures as detailed (Supplementary Materials, page 53).
The carrageenan paw edema test was conducted following established procedures. In summary, seventy-two rats were randomly assigned to twelve groups, each comprising six rats.
These groups included normal controls, carrageenan controls (both receiving the vehicle; 1%
Acute inflammation was induced in the right hind paws of all rats one hour after oral administration of the respective compounds or vehicle. This was achieved by injecting a freshly prepared 0.1 mL carrageenan suspension (1% in normal saline) subplantarly into the right hind paw, except for the normal control group, which received a saline injection. Paw thickness was measured hourly (Ct) until the fifth hour (C5) post-carrageenan injection (C0). The hourly increase in paw thickness (paw thickness difference) was calculated by subtracting the initial measurement (C0) from the thickness at each hour (Ct), and the results were presented as the mean increase in paw thickness (mm). To evaluate anti-inflammatory effects, the percentage of inhibition for each standard and test compound was determined using the formula: percentage of inhibition (%) = [(Paw thickness difference of carrageenan group - Paw thickness difference of treated)/ Paw thickness difference of carrageenan group] × 100. […] The paws were then excised and weighed (both left and right). The percentage of weight increase between the left and right paws of each animal was calculated using the equation: Percentage of weight increase = [(Weight of the right paw - Weight of the left paw) / Weight of the left paw] ×100.

ovine COX-1 = target: T1, ovine COX-1 (Ovis aries, UniProt P05979); test: In vitro COX-1 inhibition assay (Cayman colorimetric COX inhibitor screening kit)
T1 sequence (P05979 25-600): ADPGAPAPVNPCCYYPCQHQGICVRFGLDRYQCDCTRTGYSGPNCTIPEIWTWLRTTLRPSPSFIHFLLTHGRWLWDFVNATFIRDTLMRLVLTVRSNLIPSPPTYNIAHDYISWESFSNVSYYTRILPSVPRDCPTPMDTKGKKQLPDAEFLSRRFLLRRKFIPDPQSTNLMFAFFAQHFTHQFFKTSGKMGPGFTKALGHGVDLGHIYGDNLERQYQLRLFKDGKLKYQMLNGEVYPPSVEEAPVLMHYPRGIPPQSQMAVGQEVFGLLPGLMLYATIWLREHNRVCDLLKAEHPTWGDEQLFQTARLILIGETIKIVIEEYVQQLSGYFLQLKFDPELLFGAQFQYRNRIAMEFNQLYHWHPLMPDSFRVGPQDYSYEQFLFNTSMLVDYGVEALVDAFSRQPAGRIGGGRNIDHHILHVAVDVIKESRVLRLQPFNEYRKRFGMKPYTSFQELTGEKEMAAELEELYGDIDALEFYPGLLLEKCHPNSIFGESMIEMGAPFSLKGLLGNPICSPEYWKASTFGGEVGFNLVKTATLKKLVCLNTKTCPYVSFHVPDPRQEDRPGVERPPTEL
Experimental: (§7) The in vitro enzyme assays were performed at the Biochemistry Department, Cairo
(§8) General Hospital, Egypt. Cayman® colorimetric COX (ovine) inhibitor screening assay kit (Item
(§9) enzymes in presence of all newly compounds. Generally, this kit is dependent on the reductive
(§10) reaction of COX. A specific antibody binds to PGH2 produced by COX and is further quantified
(§11) by the ELISA technique as previously reported. After that, the selectivity index (SI) was calculated
as the following equation:
𝐒𝐞𝐥𝐞𝐜𝐭𝐢𝐯𝐢𝐭𝐲 𝐢𝐧𝐝𝐞𝐱 (𝐒𝐈) = 𝐈𝐂₅₀𝐨𝐟 𝐂𝐎𝐗 − 𝟏

[2] = test system: nociceptive responses on hot plate; test: Hot plate latency test (analgesic activity); assay type: in vivo, rats; conditions: for Hot plate latency period: plate 50 °C, mean ± SD, n = 6
Experimental: The hot plate latency test was performed according to the following procedures (Supplementary Materials, page 54). […]
In summary, thirty rats
The normal control group received 1% CMC, while the remaining groups were administered their respective reference or test compounds. Each rat was gently positioned on a heated plate set at 50 ◦C. The latency period for nociceptive responses, such as paw licking or jumping off the hot plate, was recorded at 30-, 60-, 90-, and 120 minutes post-administration of the reference drugs, test […]

[3] = Assessment of liver and kidney function (serum ALT, AST, creatinine, urea); assay type: in vivo, rats; set-up: Urea: unit not given here; conditions: mean ± SD; for ALT / AST / AST/ALT / Urea: n = 6; for Creatinine: n = 6, in mg/dL (unit assumed)
Experimental: These assessments were conducted following the manufacturer’s instructions (Supplementary Materials, page 55).
In-vivo anti-inflammatory activity
(§1) cervical dislocation. […] The percentage
(§2) Weight of the left paw] ×100.
Assessment of inflammatory biomarkers using ELISA

TNF-α = TNF-α content of paw exudate by ELISA, carrageenan paw edema model; assay type: in vivo, Sprague Dawley rats; conditions: vs carrageenan group
Experimental: (§3) ELISA assessment assays were conducted as cited (Supplementary Materials, page 53).
(§4) In-vivo anti-inflammatory activity […]
as §1, §2
(§5) Assessment of inflammatory biomarkers using ELISA […]
(§6) content, using enzyme -linked immunosorbent assay (ELISA). The ELISA kits were purchased from CLOUD -CLONE CORP (CCC, USA) (Cat# SEA133Ra) and MyBioSource company (British Columbia, Canada) (Cat# MBS730592) respectively, and the assays were performed following the manufacturer' s instructions. Additionally, the protein content of the exudates was determined using the Bradford method.

human COX-2 = target: T2, human COX-2 (Homo sapiens, UniProt P35354); test: In vitro COX-2 inhibition assay (Cayman colorimetric COX inhibitor screening kit); conditions: for SI (COX-2 selectivity index): COX-1 (IC50)/COX-2 (IC50); for IC50: COX-2 IC50, mean ± SEM, n = 3
T2 sequence (P35354 18-604): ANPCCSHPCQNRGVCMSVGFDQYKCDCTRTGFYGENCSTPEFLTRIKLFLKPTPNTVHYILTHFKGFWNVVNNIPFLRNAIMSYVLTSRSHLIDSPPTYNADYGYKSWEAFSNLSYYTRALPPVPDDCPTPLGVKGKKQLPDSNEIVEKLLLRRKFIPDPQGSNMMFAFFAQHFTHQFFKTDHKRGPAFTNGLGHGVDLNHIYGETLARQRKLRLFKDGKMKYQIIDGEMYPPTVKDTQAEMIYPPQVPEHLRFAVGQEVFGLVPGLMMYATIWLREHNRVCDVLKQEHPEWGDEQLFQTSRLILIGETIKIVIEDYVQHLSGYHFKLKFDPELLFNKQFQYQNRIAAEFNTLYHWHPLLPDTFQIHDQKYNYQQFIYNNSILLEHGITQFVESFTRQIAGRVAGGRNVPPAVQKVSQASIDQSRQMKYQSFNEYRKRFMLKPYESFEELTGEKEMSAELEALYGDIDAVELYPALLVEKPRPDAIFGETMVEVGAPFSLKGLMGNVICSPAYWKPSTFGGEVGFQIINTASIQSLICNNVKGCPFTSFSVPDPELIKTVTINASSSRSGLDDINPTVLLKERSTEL
Experimental: as §7, §8, §9, §10, §11
as the following equation:
𝐒𝐞𝐥𝐞𝐜𝐭𝐢𝐯𝐢𝐭𝐲 𝐢𝐧𝐝𝐞𝐱 (𝐒𝐈) = 𝐈𝐂₅₀𝐨𝐟 𝐂𝐎𝐗 − 𝟏

PGE2 = PGE2 content of paw exudate by ELISA, carrageenan paw edema model; assay type: in vivo, Sprague Dawley rats; conditions: vs carrageenan group
Experimental: as §3, §4, §1, §2, §5, §6

[4] = test system: paw tissue, carrageenan paw edema model; test: Histopathological examination of paws, inflammatory cell infiltration score; assay type: in vivo, rats; conditions: for Paw histopathological finding: H&E staining, carrageenan paw edema; for Reduction in inflammatory cell infiltration score: vs carrageenan group, paw, 5 hours
Experimental: The histopathological assessments were performed according to the following procedures (Supplementary Materials, page 54). […]
Histopathological examination
Thirty-six rats were separated into six groups of six rats each for histological assessment […]
groupings consisted of a control group, a carrageenan group, two groups for the reference drugs […]
protocols that were utilized in the in-vivo anti-inflammatory activity test were used. After a duration of 5 hours, the animals were euthanized, and their left paws were amputated. The paws were preserved in 10% neutral buffered formalin, trimmed, washed, dehydrated in increasing concentrations of ethyl alcohol, clarified in xylene, and ultimately embedded in paraffin. They were then sliced into 4-6µ thick slices, stained with Hematoxylin and Eosin, and examined under a light microscope. A scoring system was used to evaluate the degree of inflammation, dividing it into six categories ranging from 0 indicating no inflammation to 5 indicating severe inflammation.
Each score corresponded to a certain level of inflammation: 0 for no inflammation, 1 for mild inflammation, 2 for mild to moderate inflammation, 3 for moderate inflammation, 4 for moderate to severe inflammation, and 5 for severe inflammation.

COX-2 = conditions: cited from earlier work
[5] = compared to the normal control group

Structure (SMILES): O=C(O)COc1ccc(Br)cc1C=NNC(=O)c1ccc(Cl)cc1 [Compound 5f, 2-(4-Bromo-2-((2-(4-chlorobenzoyl)hydrazineylidene)methyl)phenoxy)acetic acid]
- Gastric mucosa histopathological finding (gastric mucosa): normal histological structure of gastric mucosa; also recorded: normal histological structure of the stomach mucosa
- Ulcer Number Score (gastric mucosa): 0.50 ± 0.55 ^d
- Ulcer Severity Score (gastric mucosa): 0.33 ± 0.41 ^d
- Paw thickness difference ([1]; 1st h after carrageenan): 0.83 ± 0.15 mm
- Percentage of inhibition of paw thickness ([1]; 1st h, vs carrageenan group): 58.11%
- Paw thickness difference ([1]; 2nd h after carrageenan): 1.65 ± 0.29 mm
- Percentage of inhibition of paw thickness ([1]; 2nd h, vs carrageenan group): 49.85%
- Paw thickness difference ([1]; 3rd h after carrageenan): 2.32 ± 0.17 mm
- Percentage of inhibition of paw thickness ([1]; 3rd h, vs carrageenan group): 45.05%
- Paw thickness difference ([1]; 4th h after carrageenan): 2.68 ± 0.12 mm
- Percentage of inhibition of paw thickness ([1]; 4th h, vs carrageenan group): 46.9%
- Paw thickness difference ([1]; 5th h after carrageenan): 2.84 ± 0.13 mm
- Paw Weight Increase [1]: 29.85 ± 3.88 ^ab %
- Inhibition of percentage of paw weight increase ([1]; vs carrageenan group): 68.26%
- IC50 (ovine COX-1): 8 ± 0.2 µM
- Increase in latency period ([2]; 30 min mark): 39.43%
- Hot plate latency period ([2]; 30 min post-administration): 8.99 ± 0.38 ^abc
- Hot plate latency period ([2]; 60 min post-administration): 10.59 ± 0.3 ^abc
- Hot plate latency period ([2]; 90 min post-administration): 12.48 ± 0.65 ^ab
- Increase in latency period ([2]; 120 min mark): 49.50%
- Hot plate latency period ([2]; 120 min post-administration): 14.15 ± 0.38 ^a
- ALT [3]: 92.76 ± 3.83 IU/L
- AST [3]: 93.69 ± 5.26 IU/L
- AST/ALT [3]: 1.01 ± 0.08
- Urea [3]: 26.37 ± 2.48
- Creatinine [3]: 0.67 ± 0.04
- Reduction of TNF-α exudate content (TNF-α): 61.04%
- SI (COX-2 selectivity index) (human COX-2): 133.34
- IC50 (human COX-2): 0.06 ± 0.01 µM
- Reduction of PGE2 exudate content (PGE2): 60.58%
- Paw histopathological finding [4]: infiltration by a few numbers of inflammatory cells mainly eosinophils and lymphocytes; also recorded: dermal edema with limited infiltration of inflammatory cells
- Reduction in inflammatory cell infiltration score [4]: 70.37%

Structure (SMILES): Cc1cccc(Nc2ccccc2C(=O)O)c1C [Mefenamic acid, mefenamic acid, reference compound]
- Gastric mucosa histopathological finding (gastric mucosa): ulcer formation with desquamation of gastric mucosal epithelium; also recorded: ulcer development and desquamation of the stomach mucosal epithelium
- Increase in ulcer number (gastric mucosa; [5]): 233.33%
- Increase in ulcer severity score (gastric mucosa; [5]): 366.67%
- Ulcer Number Score (gastric mucosa): 1.67 ± 0.82 ^a
- Ulcer Severity Score (gastric mucosa): 1.17 ± 0.61 ^a
- IC50 (COX-2): 5.3 µM
- Paw thickness difference ([1]; 1st h after carrageenan): 1.22 ± 0.19 mm
- Percentage of inhibition of paw thickness ([1]; 1st h, vs carrageenan group): 38.43%
- Paw thickness difference ([1]; 2nd h after carrageenan): 2.27 ± 0.11 mm
- Percentage of inhibition of paw thickness ([1]; 2nd h, vs carrageenan group): 31.22%
- Paw thickness difference ([1]; 3rd h after carrageenan): 2.86 ± 0.11 mm
- Percentage of inhibition of paw thickness ([1]; 3rd h, vs carrageenan group): 32.37%
- Paw thickness difference ([1]; 4th h after carrageenan): 3.22 ± 0.19 mm
- Percentage of inhibition of paw thickness ([1]; 4th h, vs carrageenan group): 36.16%
- Paw thickness difference ([1]; 5th h after carrageenan): 3.51 ± 0.07 mm
- Percentage of inhibition of paw thickness ([1]; 5th h, vs carrageenan group): 33.89%
- Paw Weight Increase [1]: 34.08 ± 2.27 ^ab %
- IC50 (ovine COX-1): 29.9 ± 0.09 µM
- Hot plate latency period ([2]; 30 min post-administration): 9.95 ± 0.35 ^ab
- Increase in latency period ([2]; 60 min mark): 58.38%
- Hot plate latency period ([2]; 60 min post-administration): 11.58 ± 0.25 ^ab
- Hot plate latency period ([2]; 90 min post-administration): 12.83 ± 0.36 ^ab
- Hot plate latency period ([2]; 120 min post-administration): 13.73 ± 0.42 ^a
- ALT [3]: 88.84 ± 6.09 IU/L
- AST [3]: 97.51 ± 8.08 IU/L
- AST/ALT [3]: 1.10 ± 0.15
- Urea [3]: 27.58 ± 2.08
- Creatinine [3]: 0.72 ± 0.05
- Reduction of TNF-α exudate content (TNF-α): 60.09%
- SI (COX-2 selectivity index) (human COX-2): 15.10
- IC50 (human COX-2): 1.98 ± 0.02 µM
- Reduction of PGE2 exudate content (PGE2): 59.37%
- Paw histopathological finding [4]: infiltration of dermis by high number of inflammatory cells mainly lymphocytes and eosinophils; also recorded: significant cutaneous infiltration by inflammatory cells
- Reduction in inflammatory cell infiltration score [4]: 37.04%
